Results on 13 compounds are retold here after ChEMBL document CHEMBL1139457, “Pyrrolo[1,3]benzothiazepine-based serotonin and dopamine receptor antagonists. Molecular modeling, further structure-activity relationship studies, and identification of novel atypical antipsychotic agents” (J Med Chem, 2004).

Test [1] is filed under the species Mus musculus. Briefly: animal or person. Type of test: functional. The settings on record: po.
Description: In vivo inhibitory activity against 5-MeO-DMT-Induced Head-Twitches in mouse after oral administration
The species entered for test [2] is Mus musculus.
For test [3], the species on record is Rattus norvegicus. In words: animal or person. Type of test: functional. Particulars: po.
Description: In vivo inhibition against catalepsy in rats after oral administration evaluated by metal bar
In test [4] the target is T1, 5-hydroxytryptamine receptor 2A (Rattus norvegicus, UniProt P14842).
T1 sequence (P14842 whole entry): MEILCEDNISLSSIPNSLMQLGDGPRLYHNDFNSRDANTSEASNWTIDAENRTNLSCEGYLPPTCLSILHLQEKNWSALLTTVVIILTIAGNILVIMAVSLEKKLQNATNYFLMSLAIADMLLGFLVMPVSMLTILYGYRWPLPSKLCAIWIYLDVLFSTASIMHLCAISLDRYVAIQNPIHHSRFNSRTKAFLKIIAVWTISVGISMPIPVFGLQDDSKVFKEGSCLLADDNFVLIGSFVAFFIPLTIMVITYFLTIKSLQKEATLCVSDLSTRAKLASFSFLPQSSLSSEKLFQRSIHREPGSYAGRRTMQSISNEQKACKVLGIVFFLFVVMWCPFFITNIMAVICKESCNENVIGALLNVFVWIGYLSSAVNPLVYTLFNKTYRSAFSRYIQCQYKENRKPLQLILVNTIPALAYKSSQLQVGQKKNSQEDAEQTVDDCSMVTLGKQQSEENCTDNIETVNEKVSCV
Description: In vitro binding affinity towards 5-hydroxytryptamine 2A receptor in rat tissue homogenate using [3H]ketanserin as radioligand
The target of test [5] is T2, D(1A) dopamine receptor (Rattus norvegicus, UniProt P18901). Further details: species or system Tissue.
T2 sequence (P18901 whole entry): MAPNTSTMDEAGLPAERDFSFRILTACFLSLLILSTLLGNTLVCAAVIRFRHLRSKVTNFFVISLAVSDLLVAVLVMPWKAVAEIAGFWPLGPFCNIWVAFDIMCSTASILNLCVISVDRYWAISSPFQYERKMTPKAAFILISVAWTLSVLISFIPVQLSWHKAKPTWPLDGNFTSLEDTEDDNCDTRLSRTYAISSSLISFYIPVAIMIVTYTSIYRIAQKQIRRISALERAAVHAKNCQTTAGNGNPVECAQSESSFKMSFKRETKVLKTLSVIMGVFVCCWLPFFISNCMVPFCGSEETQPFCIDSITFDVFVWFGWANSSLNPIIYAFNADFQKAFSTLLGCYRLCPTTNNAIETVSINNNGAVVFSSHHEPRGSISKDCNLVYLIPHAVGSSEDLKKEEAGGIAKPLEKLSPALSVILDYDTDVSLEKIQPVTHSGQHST
Description: In vitro binding affinity towards Dopamine receptor D1 in rat tissue homogenate using [3H]-SCH- 23390 as radioligand
Test [6] concerns the target T3, D(3) dopamine receptor (Rattus norvegicus, UniProt P19020). Briefly: biochemical. Type of test: cell-based, Sf9.
Description: (§1) In vitro binding affinity towards Dopamine receptor D3 in Sf9 cell membranes using [3H]7-OH-DPAT as radioligand
Test [7] concerns the target T2, D(1A) dopamine receptor. Further details: species or system Tissue. This is another data set of the same source.
The next test concerns the target D(2) dopamine receptor (Rattus norvegicus, UniProt P61169). Details: species or system Tissue.
For test [8], the target named is T3, D(3) dopamine receptor. The class given is cell-based. Particulars: sf9.
Description: as §1
Test [9] addresses T1, 5-hydroxytryptamine receptor 2A. Details: species or system Tissue.
Test [10] has as its target T4, Adrenergic receptor alpha-1 (Rattus norvegicus, UniProt P15823+P23944+P43140).
T4 sequence (P15823 whole entry): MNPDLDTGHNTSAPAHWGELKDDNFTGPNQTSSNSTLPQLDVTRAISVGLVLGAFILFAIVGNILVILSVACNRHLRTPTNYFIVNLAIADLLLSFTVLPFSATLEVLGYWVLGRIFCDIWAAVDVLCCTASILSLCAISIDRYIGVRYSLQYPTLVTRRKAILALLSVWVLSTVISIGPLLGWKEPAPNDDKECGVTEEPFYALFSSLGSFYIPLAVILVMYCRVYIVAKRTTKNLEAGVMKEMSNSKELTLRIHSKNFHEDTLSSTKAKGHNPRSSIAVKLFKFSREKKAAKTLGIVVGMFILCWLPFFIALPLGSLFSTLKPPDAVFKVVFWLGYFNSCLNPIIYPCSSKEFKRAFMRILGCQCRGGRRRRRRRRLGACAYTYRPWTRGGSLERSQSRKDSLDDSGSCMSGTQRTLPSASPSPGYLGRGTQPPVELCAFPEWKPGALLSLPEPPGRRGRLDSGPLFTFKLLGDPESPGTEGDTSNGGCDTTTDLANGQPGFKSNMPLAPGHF
T4 sequence (P23944 whole entry): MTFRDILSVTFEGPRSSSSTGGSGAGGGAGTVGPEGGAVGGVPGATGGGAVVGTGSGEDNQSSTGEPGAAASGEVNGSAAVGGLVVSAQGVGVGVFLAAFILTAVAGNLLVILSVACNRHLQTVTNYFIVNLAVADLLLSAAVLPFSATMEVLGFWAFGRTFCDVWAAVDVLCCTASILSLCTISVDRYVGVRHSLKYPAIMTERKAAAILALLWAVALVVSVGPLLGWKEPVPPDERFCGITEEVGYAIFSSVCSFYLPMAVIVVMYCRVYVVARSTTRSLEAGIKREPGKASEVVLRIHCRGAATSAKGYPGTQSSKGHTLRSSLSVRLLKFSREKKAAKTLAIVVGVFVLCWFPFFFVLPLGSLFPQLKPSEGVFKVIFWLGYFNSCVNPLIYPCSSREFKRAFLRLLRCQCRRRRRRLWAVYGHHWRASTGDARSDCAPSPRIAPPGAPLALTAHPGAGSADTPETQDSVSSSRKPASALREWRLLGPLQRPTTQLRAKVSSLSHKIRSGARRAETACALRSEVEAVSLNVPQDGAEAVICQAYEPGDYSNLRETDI
T4 sequence (P43140 whole entry): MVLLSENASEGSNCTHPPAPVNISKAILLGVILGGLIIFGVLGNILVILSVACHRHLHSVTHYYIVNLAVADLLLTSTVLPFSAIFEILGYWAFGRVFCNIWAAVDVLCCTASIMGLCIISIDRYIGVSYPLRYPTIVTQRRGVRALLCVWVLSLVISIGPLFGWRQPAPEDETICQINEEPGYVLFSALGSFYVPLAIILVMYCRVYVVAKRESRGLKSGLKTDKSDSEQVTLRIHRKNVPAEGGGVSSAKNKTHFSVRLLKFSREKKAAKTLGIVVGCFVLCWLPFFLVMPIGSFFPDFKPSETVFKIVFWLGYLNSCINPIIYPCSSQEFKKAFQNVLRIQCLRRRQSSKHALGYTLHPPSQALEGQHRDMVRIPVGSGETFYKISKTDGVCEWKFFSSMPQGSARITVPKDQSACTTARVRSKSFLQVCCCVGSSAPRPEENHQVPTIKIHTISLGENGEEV
Type of test: tissue-based, Frontal cortex.
Description: In vitro binding affinity towards alpha-1 adrenergic receptor in rat frontal cortex homogenate using of [3H]prazosin as radioligand

Test [11] addresses T5, Muscarinic acetylcholine receptor M1 (Rattus norvegicus, UniProt P08482).
T5 sequence (P08482 whole entry): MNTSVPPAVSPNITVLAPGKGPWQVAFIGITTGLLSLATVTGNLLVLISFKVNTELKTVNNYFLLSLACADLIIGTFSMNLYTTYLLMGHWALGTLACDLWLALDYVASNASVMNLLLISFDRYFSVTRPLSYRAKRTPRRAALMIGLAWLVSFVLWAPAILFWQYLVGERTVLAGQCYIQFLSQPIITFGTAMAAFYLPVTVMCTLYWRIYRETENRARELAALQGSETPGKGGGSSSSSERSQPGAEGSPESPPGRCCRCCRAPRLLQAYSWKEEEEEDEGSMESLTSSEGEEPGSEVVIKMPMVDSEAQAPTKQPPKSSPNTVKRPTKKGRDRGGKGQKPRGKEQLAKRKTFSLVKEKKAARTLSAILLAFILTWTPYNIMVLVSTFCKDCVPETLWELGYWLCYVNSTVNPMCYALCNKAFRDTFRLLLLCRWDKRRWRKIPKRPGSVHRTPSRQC
In words: biochemical. The class given is tissue-based, Frontal cortex.
Description: In vitro binding affinity towards M1 receptor of rat frontal cortex homogenate by using radioligand [3H]QNB

The target of another test is Histamine H1 receptor (Rattus norvegicus, UniProt P31390). Briefly: biochemical. Type of test: tissue-based, Frontal cortex.
Histamine H1 receptor, sequence (P31390 whole entry): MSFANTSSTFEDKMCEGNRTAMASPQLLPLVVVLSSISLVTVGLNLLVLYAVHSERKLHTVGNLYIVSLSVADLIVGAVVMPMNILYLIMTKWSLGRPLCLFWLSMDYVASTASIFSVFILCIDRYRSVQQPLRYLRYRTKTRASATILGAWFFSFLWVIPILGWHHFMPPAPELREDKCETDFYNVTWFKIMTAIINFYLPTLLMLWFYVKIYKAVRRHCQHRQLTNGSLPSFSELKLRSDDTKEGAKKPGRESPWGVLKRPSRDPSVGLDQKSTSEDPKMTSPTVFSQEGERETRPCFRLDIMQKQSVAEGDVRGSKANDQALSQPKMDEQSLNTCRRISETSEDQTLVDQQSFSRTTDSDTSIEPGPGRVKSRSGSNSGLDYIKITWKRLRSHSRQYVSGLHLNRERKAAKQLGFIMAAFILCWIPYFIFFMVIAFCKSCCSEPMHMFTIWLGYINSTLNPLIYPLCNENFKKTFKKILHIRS
The species entered for test [12] is Rattus norvegicus. The class given is functional. The settings on record: dose 0.3 mg/kg, route intraperitoneal.
Description: Inhibitory activity tested in rats after intraperitoneal administration at 0.3 mg/kg with saline
The species entered for test [13] is Rattus norvegicus. Type of test: functional.
Description: Minimal inhibitory activity tested in rats after intraperitoneal administration
The species entered for test [14] is Rattus norvegicus. Briefly: animal or person. The class given is functional. The settings on record: po. The source holds these as a separate data set.
Description: In vivo inhibition against MK-801 induced hyperactivity in rats after oral administration
The species named for test [15] is Mus musculus. Briefly: animal or person. The class given is functional. The settings on record: po. This is another data set of the same source.
Description: In vivo inhibitory activity tested in apomorphine climbing mice after oral administration
Test [16] deals with T6, Adrenergic receptor alpha-2 (Rattus norvegicus, UniProt P22086+P19328+P22909).
T6 sequence (P22086 whole entry): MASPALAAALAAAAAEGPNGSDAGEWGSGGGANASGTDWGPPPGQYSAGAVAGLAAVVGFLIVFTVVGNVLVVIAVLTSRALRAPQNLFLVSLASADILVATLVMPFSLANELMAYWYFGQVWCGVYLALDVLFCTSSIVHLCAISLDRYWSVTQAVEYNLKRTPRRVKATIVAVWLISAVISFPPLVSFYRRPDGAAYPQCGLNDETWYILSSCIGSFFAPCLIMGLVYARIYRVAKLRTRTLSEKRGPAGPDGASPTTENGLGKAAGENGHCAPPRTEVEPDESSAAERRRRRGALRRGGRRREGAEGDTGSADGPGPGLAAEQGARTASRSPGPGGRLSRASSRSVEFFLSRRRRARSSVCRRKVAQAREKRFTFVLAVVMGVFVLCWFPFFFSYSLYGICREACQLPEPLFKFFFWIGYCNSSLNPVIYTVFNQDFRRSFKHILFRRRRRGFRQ
T6 sequence (P19328 whole entry): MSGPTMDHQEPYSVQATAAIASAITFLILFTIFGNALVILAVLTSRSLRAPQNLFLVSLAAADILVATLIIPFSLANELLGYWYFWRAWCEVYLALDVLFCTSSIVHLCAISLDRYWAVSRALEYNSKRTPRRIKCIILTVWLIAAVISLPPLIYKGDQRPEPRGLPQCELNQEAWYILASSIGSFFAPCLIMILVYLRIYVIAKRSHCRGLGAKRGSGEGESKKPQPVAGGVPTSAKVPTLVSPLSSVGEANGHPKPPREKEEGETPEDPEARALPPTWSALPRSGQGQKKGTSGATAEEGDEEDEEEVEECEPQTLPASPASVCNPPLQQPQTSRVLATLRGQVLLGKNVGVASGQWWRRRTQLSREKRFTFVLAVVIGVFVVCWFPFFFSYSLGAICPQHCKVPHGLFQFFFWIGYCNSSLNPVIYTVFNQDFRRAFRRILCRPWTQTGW
T6 sequence (P22909 whole entry): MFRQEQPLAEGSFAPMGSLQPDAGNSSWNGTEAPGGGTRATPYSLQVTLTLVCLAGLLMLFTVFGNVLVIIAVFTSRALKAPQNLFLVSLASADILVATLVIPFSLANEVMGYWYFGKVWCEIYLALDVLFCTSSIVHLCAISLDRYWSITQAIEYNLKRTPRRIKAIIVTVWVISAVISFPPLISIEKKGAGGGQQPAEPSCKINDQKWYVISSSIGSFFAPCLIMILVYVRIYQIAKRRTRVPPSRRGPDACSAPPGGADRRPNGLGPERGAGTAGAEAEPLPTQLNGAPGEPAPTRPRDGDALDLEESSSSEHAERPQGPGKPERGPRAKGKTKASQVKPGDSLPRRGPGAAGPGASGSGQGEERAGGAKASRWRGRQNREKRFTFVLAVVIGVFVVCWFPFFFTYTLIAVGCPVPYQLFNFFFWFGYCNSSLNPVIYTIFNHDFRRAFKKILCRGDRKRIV
Type of test: tissue-based, Frontal cortex.
Description: In vitro binding affinity towards alpha-2 adrenergic receptor in rat frontal cortex homogenate using of [3H]clonidine as radioligand

The species entered for test [17] is Rattus norvegicus. In words: animal or person. The class given is functional. Particulars: po. This is another data set of the same source.
Description: In vivo inhibition of spontaneous locomotory activity tested in rats after oral administration
For test [18], the species on record is Rattus norvegicus. Briefly: animal or person. Type of test: functional. The settings on record: po. The source holds these as a separate data set.
Description: In vivo inhibition against conditioned avoidance response in rats after oral administration
The target of test [19] is 5-hydroxytryptamine receptor 2A (Homo sapiens, UniProt P28223).
5-hydroxytryptamine receptor 2A (Homo sapiens, UniProt P28223), sequence (P28223 whole entry): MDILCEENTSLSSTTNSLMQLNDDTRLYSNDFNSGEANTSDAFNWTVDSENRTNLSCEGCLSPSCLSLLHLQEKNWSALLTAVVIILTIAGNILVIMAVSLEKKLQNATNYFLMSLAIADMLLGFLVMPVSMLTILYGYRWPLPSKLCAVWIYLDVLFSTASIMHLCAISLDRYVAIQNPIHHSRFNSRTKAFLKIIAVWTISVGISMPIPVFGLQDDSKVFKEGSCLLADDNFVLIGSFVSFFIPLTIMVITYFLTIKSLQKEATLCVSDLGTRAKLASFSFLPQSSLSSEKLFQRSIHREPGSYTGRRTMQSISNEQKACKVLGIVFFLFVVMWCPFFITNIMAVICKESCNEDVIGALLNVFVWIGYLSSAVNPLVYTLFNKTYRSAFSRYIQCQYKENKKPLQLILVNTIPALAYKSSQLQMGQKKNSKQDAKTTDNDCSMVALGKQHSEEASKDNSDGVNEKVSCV
Description: In vitro binding affinity towards 5-hydroxytryptamine 2A receptor in human using [3H]ketanserin as radioligand

The structures appear in SMILES notation. Where “and” joins values, the source holds several entries; their conditions need not be identical. Equal entries are not always repeated. Calls of active or inactive are those of the source. No cut-off for these calls is given here. Where only a bound is given, the exact number is not on record here.

D(2) dopamine receptor, sequence (P61169 whole entry): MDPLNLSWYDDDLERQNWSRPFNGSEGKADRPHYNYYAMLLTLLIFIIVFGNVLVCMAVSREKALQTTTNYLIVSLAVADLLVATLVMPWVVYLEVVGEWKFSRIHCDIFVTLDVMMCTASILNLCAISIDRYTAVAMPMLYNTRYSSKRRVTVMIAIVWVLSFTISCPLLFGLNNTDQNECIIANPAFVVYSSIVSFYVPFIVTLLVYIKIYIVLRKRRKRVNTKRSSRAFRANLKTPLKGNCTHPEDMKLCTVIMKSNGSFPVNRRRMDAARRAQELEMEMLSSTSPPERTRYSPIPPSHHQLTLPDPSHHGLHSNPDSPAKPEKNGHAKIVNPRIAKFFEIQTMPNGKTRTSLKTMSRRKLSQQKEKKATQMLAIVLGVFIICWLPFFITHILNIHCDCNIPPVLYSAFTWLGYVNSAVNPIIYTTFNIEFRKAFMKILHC
T3 sequence (P19020 whole entry): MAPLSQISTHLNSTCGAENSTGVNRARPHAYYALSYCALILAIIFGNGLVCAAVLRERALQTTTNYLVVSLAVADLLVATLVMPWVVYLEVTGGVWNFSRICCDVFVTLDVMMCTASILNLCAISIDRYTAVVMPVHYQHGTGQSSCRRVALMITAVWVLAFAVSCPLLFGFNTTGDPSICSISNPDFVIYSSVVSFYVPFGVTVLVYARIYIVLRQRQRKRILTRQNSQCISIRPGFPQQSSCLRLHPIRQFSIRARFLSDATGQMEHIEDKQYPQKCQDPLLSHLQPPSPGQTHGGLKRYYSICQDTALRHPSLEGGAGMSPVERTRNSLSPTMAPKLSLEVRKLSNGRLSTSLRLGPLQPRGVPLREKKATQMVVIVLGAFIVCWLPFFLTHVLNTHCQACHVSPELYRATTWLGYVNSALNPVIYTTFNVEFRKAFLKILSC
Description for Histamine H1 receptor: In vitro binding affinity towards Histamine H1 receptor of rat frontal cortex homogenate by using radioligand [3H]pyrilamine

For the compound `CN1CCN([C@@H]2Cn3cccc3Sc3ccc(Cl)cc32)CC1`, the figures for the ED50 in the test listed under Mus musculus [1] and in the test listed under Rattus norvegicus [3] were 14.3 µmol/kg and 115 µmol/kg, respectively. In the test listed under Mus musculus [2], the ED50 result was “inactive”.

As for `CN1CCN(C2=Cn3c(C=O)ccc3Sc3ccccc32)CC1`, the Ki in test [4] stood at 0.02 µM; on D(1A) dopamine receptor [5], 4.28 µM; on D(3) dopamine receptor [6] it was 0.102 µM.

Turning to `CC(C)OCc1ccc2n1C=C(N1CCN(C)CC1)c1ccccc1S2`, the Ki came to 0.217 µM in [4], 7.6 µM at D(1A) dopamine receptor [5] and 0.278 µM on D(3) dopamine receptor [6].

Take `CN1CCN(C2Cn3c(CO)ccc3Sc3ccc(Cl)cc32)CC1` (configuration not stated): the Ki entry (on D(1A) dopamine receptor [7]; on D(2) dopamine receptor; on D(3) dopamine receptor [8]; in test [9]) was “Not Active” throughout.

For `CN1CCN(C2=Cn3c(/C=N/O)ccc3Sc3ccccc32)CC1`, the Ki is 1.98 µM in [4], “Not Active” at D(1A) dopamine receptor [7], “Not Active” on D(2) dopamine receptor and 4.26 µM on D(3) dopamine receptor [6].

For `CN1CCN(C2=Cn3cccc3Sc3ccc(Br)cc32)CC1`, the Ki in [4] was determined as 0.00083 µM; at D(1A) dopamine receptor [5] it was 0.0034 µM; on D(3) dopamine receptor [6], 0.00025 µM.

Consider `CN1CCCN(C2=Cn3cccc3Sc3ccc(Cl)cc32)CC1`, for which the values for the inhibition constant Ki (in [4]; on D(1A) dopamine receptor [5]; at D(3) dopamine receptor [6]) were 0.0043 µM, 0.00587 µM and 0.0043 µM, respectively.

Consider `CN1CCN(C2=C(C=O)n3c(C=O)ccc3Sc3ccccc32)CC1`, for which the Ki in test [4] was 2.3 µM; at D(1A) dopamine receptor [7] it was “Not Active”; at D(2) dopamine receptor it was “Not Active”; at D(3) dopamine receptor [6], more than 1 µM.

Turning to `Cc1ccc2n1C=C(N1CCN(C)CC1)c1ccccc1S2`, the Ki in [10] was determined as 0.0042 µM; in test [11], 2.3 µM; on Histamine H1 receptor, 0.0027 µM.

Regarding `O=C1NCCN1CCN1CCN(C2Cn3cccc3Sc3ccc(Cl)cc32)CC1` (configuration not stated), the Ki was found to be 0.074 µM in test [4], 1.62 µM at D(1A) dopamine receptor [5] and 0.066 µM at D(3) dopamine receptor [6].

Turning to `CN1CCN(C2=Cn3c(CO)ccc3Sc3ccccc32)CC1`, the Ki is 0.019 µM in test [4], 1.74 µM on D(1A) dopamine receptor [5] and 0.113 µM on D(3) dopamine receptor [6].

Turning to `CN1CCN(C2=Cn3cccc3Sc3ccccc32)CC1`, the Correct responses in the test listed under Rattus norvegicus [12] is 80.1% and 81.5%. For the same compound, the ED50 in the test listed under Mus musculus [1] is 1.99 mg/kg and 6.7 µmol/kg; in the test listed under Rattus norvegicus [14] it was 1.1 mg/kg and 3.69 µmol/kg; in the test filed under Mus musculus [15], 1.64 mg/kg and 5.5 µmol/kg; in the test listed under Rattus norvegicus [17] it was 0.51 mg/kg and 1.71 µmol/kg; in the test listed under Rattus norvegicus [18], 1.1 mg/kg and 3.7 µmol/kg; in the test listed under Rattus norvegicus [3], > 100 mg/kg and > 336 µmol/kg. In addition, the “Min ID” value in the test filed under Rattus norvegicus [13] amounted to 1 µM/kg. In addition, the Ki in [10] worked out at 0.0005 µM; in test [16], 1.02 µM; in [11] it was 2.07 µM; at Histamine H1 receptor, 0.0027 µM; in test [19], 0.0011 µM.

Turning to `COCc1ccc2n1CC(N1CCN(C)CC1)c1cc(Cl)ccc1S2` (configuration not stated), the Ki in test [4] is 0.405 µM; on D(1A) dopamine receptor [5], more than 1000 µM; on D(3) dopamine receptor [6], 0.316 µM.

One may read the ED50 as the midpoint of the dose-response relation. A word on the Ki: it is the equilibrium dissociation constant of an inhibitor or competing ligand from its target. A lower Ki goes with a stronger hold on the target.
